The record followed here is US20250177396A1, “POLO-LIKE KINASE 4 (PLK4) INHIBITORS, PHARMACEUTICAL COMPOSITIONS, METHODS OF PREPARATION AND USES THEREOF” (Repare Therapeutics Inc., priority 2022, published 2025).

The structures appear in SMILES notation. pIC50: −log10 of the molar value. Where only a bound is given, the exact number is not on record here.

In this experiment the target is T1, PLK4 (Homo sapiens, UniProt O00444).
T1 construct: expressed in transfected cells; host or cells: HEK293 T cells (ATCC CRL-3216)
T1 sequence (O00444 1-970): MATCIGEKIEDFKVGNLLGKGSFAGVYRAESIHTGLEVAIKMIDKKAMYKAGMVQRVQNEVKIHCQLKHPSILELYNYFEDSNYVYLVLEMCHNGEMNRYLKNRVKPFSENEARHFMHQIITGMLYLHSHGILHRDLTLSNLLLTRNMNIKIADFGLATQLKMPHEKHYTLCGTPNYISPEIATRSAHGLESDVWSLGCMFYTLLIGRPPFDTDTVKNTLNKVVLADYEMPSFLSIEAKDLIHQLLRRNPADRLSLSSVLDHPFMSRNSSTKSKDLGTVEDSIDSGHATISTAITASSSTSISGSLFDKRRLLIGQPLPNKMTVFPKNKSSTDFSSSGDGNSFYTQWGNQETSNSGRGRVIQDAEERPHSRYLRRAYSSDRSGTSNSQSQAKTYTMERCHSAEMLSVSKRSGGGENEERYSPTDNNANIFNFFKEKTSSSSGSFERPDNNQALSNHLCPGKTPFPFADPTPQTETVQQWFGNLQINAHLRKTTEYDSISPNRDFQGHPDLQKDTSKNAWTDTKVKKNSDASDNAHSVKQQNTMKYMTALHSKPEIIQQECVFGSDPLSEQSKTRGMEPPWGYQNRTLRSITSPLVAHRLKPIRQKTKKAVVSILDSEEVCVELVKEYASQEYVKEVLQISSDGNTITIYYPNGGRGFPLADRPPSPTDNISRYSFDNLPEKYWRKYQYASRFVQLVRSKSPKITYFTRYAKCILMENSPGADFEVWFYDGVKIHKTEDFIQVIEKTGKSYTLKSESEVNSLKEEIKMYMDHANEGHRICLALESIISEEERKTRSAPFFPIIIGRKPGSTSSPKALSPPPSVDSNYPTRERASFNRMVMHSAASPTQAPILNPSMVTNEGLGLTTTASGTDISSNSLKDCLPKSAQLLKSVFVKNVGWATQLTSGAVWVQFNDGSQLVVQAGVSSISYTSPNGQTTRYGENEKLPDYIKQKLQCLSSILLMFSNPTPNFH
The experiment in a line: PLK4 NanoBRET target engagement assay. The experiment is classed as binding. The settings on record: HEK293 T cells transfected with PLK4 NanoLuc fusion vector; K-5 tracer; 2 hrs incubation. The method, boiled down: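 HEK293T cells transiently expressing PLK4-NanoLuc, plated at 17000 cells/well with K-5 tracer and compound, incubated 2 h at 37 °C/5% CO2. After substrate/inhibitor mix, 610/450 nm emission ratio ×1000 gave mBRET; IC50 from 4-parameter fit.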
For the molecule `Cc1cc(Nc2nc(N(C)c3c(F)cc(S(C)(=O)=O)cc3F)nc(Nc3ccn(C)n3)c2C2CC2)n[nH]1` [Compound 325], the pIC50 was 7.28.

`CCc1cc(Nc2nc(N(C)c3c(F)cc(S(C)(=O)=O)cc3F)nc(-c3cnn(C)c3)c2C2CC2)n[nH]1` [Compound 258]: the pIC50 was 8.30.

In turn, `CN(c1nc(Nc2cc(C3CC3)[nH]n2)c(C2CC2)c(-c2cn(C)cn2)n1)c1cc(F)c(S(C)(=O)=O)cc1F` [Compound 298] showed a pIC50 of 7.96.

With `Cc1cc(Nc2nc(N(C)c3c(F)cc(S(C)(=O)=O)cc3F)nc(-c3cnn(C)c3N3CCOC3=O)c2C2CC2)n[nH]1` [Compound 342], the negative-log IC50 (pIC50) was 8.40.

On to `Cc1cc(Nc2nc(N(C)c3c(F)cc(S(C)(=O)=O)cc3F)nc(Nc3cc(C)[nH]n3)c2C2CC2)n[nH]1` [Compound 313], for which the pIC50 was 7.74.

With `Cc1cc(Nc2nc(N(C)c3c(F)cc(S(C)(=O)=O)cc3F)nc(-c3cnn(CC(C)(C)O)c3C)c2C2CC2)n[nH]1` [Compound 336], the pIC50 is 8.10.

On to `COc1c(Nc2cc(C)[nH]n2)nc(N(CC(=O)O)c2ccc(S(C)(=O)=O)cc2F)nc1-c1cnn(C)c1` [Compound 91], for which the negative logarithm of the IC50 (pIC50) is 5.27.

In turn, `Cc1cc(Nc2nc(N(C)c3c(F)cc(S(C)(=O)=O)cc3F)nc(-c3cn4c(n3)CCC4)c2C2CC2)n[nH]1` [Compound 140] gave a pIC50 of 8.52.

Molecule `COc1c(Nc2cc(C)[nH]n2)nc(N(C)c2ccc(CN(C)C(=O)c3ccccc3)cc2F)nc1-c1cnn(C)c1` [Compound 52] showed a pIC50 of 6.54.

As for `Cc1cc(Nc2nc(N(C)c3c(F)cc(S(C)(=O)=O)cc3F)nc(-c3cn(CCS(C)(=O)=O)nc3C)c2C2CC2)n[nH]1` [Compound 226], the pIC50 was 8.22.

The molecule `CN(c1nc(Nc2cc(C3CC3)[nH]n2)c(C2CC2)c(-c2ccn(CCO)n2)n1)c1c(F)cc(S(C)(=O)=O)cc1F` [Compound 265] had a pIC50 of 8.30.

The molecule `Cc1cc(Nc2nc(N(C)c3c(F)cc(S(C)(=O)=O)cc3F)nc(-c3cn(C)c(CO)n3)c2C2CC2)n[nH]1` [Compound 167] showed a pIC50 of 7.52.

`CC#Cc1cc(Nc2nc(N(C)c3c(F)cc(S(C)(=O)=O)cc3F)nc(-c3cnn(C)c3)c2C2CC2)n[nH]1` [Compound 345] had a pIC50 of 7.48.

For the molecule `Cc1cc(Nc2nc(N(C)c3c(F)cc(S(C)(=O)=O)cc3F)nc(N3CCc4c(ncn4C)C3)c2C2CC2)n[nH]1` [Compound 269], the pIC50 is 7.85.

Turning to `Cc1cc(Nc2nc(N(C)c3c(F)cc(S(C)(=O)=O)cc3F)nc(-c3ccn(C4CC4)n3)c2C2CC2)n[nH]1` [Compound 209], the pIC50 was 8.30.

Regarding `CN(C)C(=O)c1c(-c2nc(N(C)c3c(F)cc(S(C)(=O)=O)cc3F)nc(Nc3cc(C4CC4)[nH]n3)c2C2CC2)cnn1C` [Compound 280], the pIC50 is 9.00.

For the molecule `CCn1cnc(-c2nc(N(C)c3c(F)cc(S(C)(=O)=O)cc3F)nc(Nc3cc(C)[nH]n3)c2C2CC2)c1` [Compound 136], the negative logarithm of the IC50 (pIC50) is 8.30.

Molecule `CCN(c1nc(Nc2cc(C)[nH]n2)c(C2CC2)c(-c2cn(C)cn2)n1)c1cc(F)c(S(C)(=O)=O)cc1F` [Compound 246] showed a pIC50 of 7.70.

In turn, `Cc1cnn(-c2nc(N(C)c3ccc(S(C)(=O)=O)cc3F)nc(Nc3cc(C)[nH]n3)c2C2CC2)c1` [Compound 112] showed a negative-log IC50 (pIC50) of 6.96.

`Cc1cc(Nc2nc(N(C)c3c(F)cc(S(C)(=O)=O)cc3F)nc(-c3cnn4c3COCC4)c2C2CC2)n[nH]1` [Compound 182]: the pIC50 is 7.96.

For the molecule `Cc1cc(Nc2nc(N(C)c3c(F)cc(S(C)(=O)=O)cc3F)nc(-c3cnn(C)c3C(C)O)c2C2CC2)n[nH]1` (stereo not drawn) [Compound 312], the pIC50 was 7.82.

With `Cc1cc(Nc2nc(N(C)c3c(F)cc(S(C)(=O)=O)cc3F)nc(-c3cc[nH]n3)c2C2CC2)n[nH]1` [Compound 106], the pIC50 is 8.22.

Take `COc1c(Nc2cc(C)[nH]n2)nc(N(CCN(C)C)c2ccc(S(C)(=O)=O)cc2F)nc1-c1cnn(C)c1` [Compound 77]: the pIC50 was 6.24.

In turn, `COCc1nc(-c2nc(N(C)c3c(F)cc(S(C)(=O)=O)cc3F)nc(Nc3cc(C)[nH]n3)c2C2CC2)cn1C` [Compound 164] showed a negative logarithm of the IC50 (pIC50) of 8.10.

In the case of `Cc1cc(Nc2nc(N(C)c3c(F)cc(S(C)(=O)=O)cc3F)nc(-c3cnn(C(F)F)c3)c2C2CC2)n[nH]1` [Compound 131], the pIC50 was 8.05.

In the case of `Cc1cc(Nc2nc(N(C)c3c(F)cc(-c4ccc(=O)n(C)c4)cc3F)nc(-c3cn(C)cn3)c2C2CC2)n[nH]1` [Compound 348], the pIC50 was 7.34.

For the molecule `CN(c1nc(Nc2n[nH]c3c2CCC3)c(C2CC2)c(-c2cnn(C)c2)n1)c1c(F)cc(S(C)(=O)=O)cc1F` [Compound 285], the negative-log IC50 (pIC50) is 6.82.

The molecule `COCCn1cc(-c2nc(N(C)c3c(F)cc(S(C)(=O)=O)cc3F)nc(Nc3cc(C4CC4)[nH]n3)c2C2CC2)c(C)n1` [Compound 276] had a pIC50 of 8.40.

`Cc1cc(Nc2nc(N(C)c3c(F)cc(S(C)(=O)=O)cc3F)nc(-c3cnc4n3CCOC4)c2C2CC2)n[nH]1` [Compound 302] had a pIC50 of 8.10.

`Cc1cc(Nc2nc(N(C)c3c(F)cc(S(C)(=O)=O)cc3F)nc(Nc3cnccn3)c2C2CC2)n[nH]1` [Compound 328]: the pIC50 is 7.29.

With `Cc1cc(Nc2nc(N(C)c3c(F)cc(S(C)(=O)=O)cc3F)nc(-c3cn(C)c(C4(O)CCC4)n3)c2C2CC2)n[nH]1` [Compound 322], the pIC50 was 7.92.

For the molecule `COc1c(Nc2cc(C)[nH]n2)nc(Nc2ccc(S(C)(=O)=O)cc2F)c(C)c1-c1cnn(C)c1` [Compound 23, N^2-(2-fluoro-4-(methylsulfonyl)phenyl)-5-methoxy-3-methyl-N^6-(5-methyl-1H-pyrazol-3-yl)-4-(1-methyl-1H-pyrazol-4-yl)pyridine-2,6-diamine], the pIC50 was 6.68.

In turn, `Cc1cc(Nc2nc(N(C)c3c(F)cc(S(C)(=O)=O)cc3F)nc(N3CCC[C@@H]3C(N)=O)c2C2CC2)n[nH]1` [Compound 346] showed a pIC50 of 7.92.

The molecule `COc1ccc(F)c(N(C)c2nc(Nc3cc(C)[nH]n3)c(OC)c(-c3cnn(C)c3)n2)c1` [Compound 74] had a pIC50 of 5.92.

As for `Cc1cc(Nc2nc(N(C)c3c(F)cc(S(C)(=O)=O)cc3F)nc(-c3cnn(C4CS(=O)(=O)C4)c3)c2C2CC2)n[nH]1` [Compound 186], the pIC50 was 7.77.

Molecule `Cc1cc(Nc2nc(N(C)c3c(F)cc(CC(=O)N4CCC4)cc3F)nc(-c3cn(C)cn3)c2C2CC2)n[nH]1` [Compound 363] showed a pIC50 below 5.30.

In turn, `Cc1cc(Nc2nc(N(C)c3c(F)cc(S(C)(=O)=O)cc3F)nc(-c3cn(CC(C)(C)O)nc3C)c2C2CC2)n[nH]1` [Compound 330] showed a negative-log IC50 (pIC50) of 8.05.

For `Cc1cc(Nc2nc(N(C)c3c(F)cc(S(C)(=O)=O)cc3F)nc(-c3cc(CC#N)n(C)n3)c2C2CC2)n[nH]1` [Compound 340], the pIC50 is 8.40.

`COC1CCc2nc(-c3nc(N(C)c4c(F)cc(S(C)(=O)=O)cc4F)nc(Nc4cc(C)[nH]n4)c3C3CC3)cn2C1` (stereo not drawn) [Compound 324] showed a negative-log IC50 (pIC50) of 8.52.

In turn, `COc1c(Nc2cc(C)[nH]n2)nc(Oc2c(F)cc(Br)cc2F)nc1-c1cnn(C)c1` [Compound 29] showed a pIC50 of 5.89.

In turn, `Cc1cc(Nc2nc(N(C)c3c(F)cc(C(N)=O)cc3F)nc(-c3cn(C)cn3)c2C2CC2)n[nH]1` [Compound 354] showed a pIC50 of 7.77.

`Cc1cc(Nc2nc(N(C)c3ccc(S(C)(=O)=O)cc3Cl)nc(-c3ccn(C)n3)c2C2CC2)n[nH]1` [Compound 48] gave a negative-log IC50 (pIC50) of 7.30.
